Results published in paper PMC12298007 (Pharmaceuticals, 2025).
Like-named read-outs stand apart in the source and are kept apart here.

Columns and labels:
PC-3 xenografts = test system: PC-3 xenografts; set-up: method as in Mansi et al. [37]; conditions: 24 h p.i.; female nude mice; i.v. 10 pmol; n = 4; ref Mansi et al. [37]; cited from earlier work
PC-3 xenograft = assay: Biodistribution, PC-3 xenograft mice; type: in vivo, NOD SCID mice; conditions: single tracer, PC-3 xenograft
Description: (§1) Tumor growth and body weight were monitored daily. […]
(§2) 3.6.1 Biodistribution studies
(§3) xenograft-bearing female NOD SCID mice. […]

[1] = Biodistribution, PC-3 xenograft mice; type: in vivo, NOD SCID mice; conditions: female, NOD SCID, intravenous, total radioactivity; for tissue uptake at 7.3 h: Mouse #2, 7.3 h p.i., 1.43 nmol; for tissue uptake at 7.3 h / tissue uptake at 4 h / tissue uptake at 25.1 h: single tracer, PC-3 xenograft; for tissue uptake at 4 h: Mouse #3, 4 h p.i., 1.49 nmol; for tissue uptake at 25.1 h: Mouse #1, 25.1 h p.i., 1.34 nmol
Description: as §1, §2, §3

[2] = Biodistribution, CHO-K1-GRPR + CHO-K1-PSMA dual xenograft mice; conditions: female, NOD SCID, mouse, intravenous, total radioactivity; for tissue uptake at 24.2 h / tissue uptake at 25.2 h: single tracer; for tissue uptake at 24.2 h / tissue uptake at 25.8 h / tissue uptake at 25.2 h / tissue uptake at 17.6 h: dual xenograft; for tissue uptake at 24.2 h: 24.2 h p.i.; for tissue uptake at 25.8 h: 1 nmol, Mouse #8, 25.8 h p.i., 1.00 nmol; for tissue uptake at 25.8 h / tissue uptake at 17.6 h: dual tracer; for tissue uptake at 25.2 h: 1.08 nmol, Mouse #6, 25.2 h p.i.; for tissue uptake at 17.6 h: 2.69 nmol, Mouse #9, 17.6 h p.i.; for tissue uptake: CHO-K1-GRPR xenograft tumor, Uptake in CHO-K1-GRPR xenografts, range
Description: Six-to-eight-week-old female immunodeficient mice (NOD SCID) were obtained from the Core facility laboratory animal breeding and husbandry of the Medical University of Vienna, Himberg, Austria. Animals were kept in individually ventilated cages with 12 h light–dark cycle. All experiments were approved by the Federal Ministry of Education, Science and Research, Republic of Austria (2020-0.253.820 and BMBWF-66.009/0122-V/3b/2019) and performed according to the guidelines from the Federation of the European Laboratory Animal Science Associations (FELASA). After an acclimatization period of two weeks, animals were injected with 3 × 10^6 CHO-K1-GRPR cells in the right flank and 3 × 10^6 CHO-K1-PSMA cells in the left flank (3 × 10^6 in 100 µL serum-free medium each). It should be noted that approximately the same passage (±1 passage number) was used for inoculation for both cell lines to ensure similar cell viability, target incidence, and density in vivo. Tracer uptake (and thus target expression) was confirmed three days prior to inoculation in cell uptake experiments. […] Tumor growth and body weight were monitored daily. Animals were subjected to imaging after 1.5–2 weeks of tumor growth (final tumor volume of 100–800 mm^3). Endpoints were defined as rapid weight loss up to 20% body weight, tumor volume ≥ 1000 mm^3, tumor volume < 1000 mm^3 with signs of necrosis (ulcerated surface), as well as clearly detectable apathy and pain upon touch.
Animals used in imaging studies were sacrificed at different time points post injectionem (p.i.) after the last imaging time point by cervical dislocation under isofluorane anesthesia. Selected organs were removed and weighed, and organ activities were measured in a γ-counter. For animals in which a dual-tracer cocktail was administered, the organs were measured several times over a period of 2–3 weeks to use these datasets in specific calculation methods (Section 3.6 in the SI) to obtain the correct activity for each individual radionuclide at the start of the measurement series.
[99mTc]Tc-PSMA-I&S or both (dual tracer cocktail) were injected into the tail vein of tumor
xenograft-bearing female NOD SCID mice. They were sacrificed by cervical dislocation under
isofluoran anesthesia at different time points post injectionem (p.i.) after the last imaging time
point. Selected organs were removed, weighed and organ activities measured in a γ-counter.

[3] = Mouse #1, 25.1 h p.i., 1.34 nmol
[4] = PC-3 tumor, read-out: Biodistribution: PC-3 Tumor
[5] = bone, read-out: Biodistribution: Bone
[6] = colon (empty), read-out: Biodistribution: Colon (empty)
[7] = intestine (empty), read-out: Biodistribution: Intestine (empty)
[8] = liver, read-out: Biodistribution: Liver
[9] = muscle, read-out: Biodistribution: Muscle
[10] = spleen, read-out: Biodistribution: Spleen
[11] = stomach (empty), read-out: Biodistribution: Stomach (empty)
[12] = CHO-K1-GRPR tumor, Biodistribution: CHO-K1-GRPR Tumor
[13] = CHO-K1-PSMA tumor, Biodistribution: CHO-K1-PSMA Tumor
[14] = adrenal, Biodistribution: Adrenal
[15] = kidney, Biodistribution: Kidney
[16] = muscle, Biodistribution: Muscle
[17] = pancreas, Biodistribution: Pancreas
[18] = spleen, Biodistribution: Spleen
[19] = stomach (empty), Biodistribution: Stomach (empty)

For `CC(C)C[C@H](NC(=O)C[C@H](O)[C@H](CC(C)C)NC(=O)[C@H](Cc1c[nH]cn1)NC(=O)CNC(=O)[C@@H](NC(=O)[C@H](C)NC(=O)[C@H](Cc1c[nH]c2ccccc12)NC(=O)[C@H](CCC(N)=O)NC(=O)[C@@H](Cc1ccccc1)NC(=O)CN1CCC(NC(=O)CN2CCN(CC(=O)O)CCN(CC(=O)O)CCN(CC(=O)O)CC2)CC1)C(C)C)C(N)=O` [[^111In]In-RM2, metal not drawn], the “Uptake in PC-3 xenografts” value (PC-3 xenografts) is given as 6.84 ± 1.02 % ID/g, the “Biodistribution: Kidney” value (PC-3 xenograft; [3]) is given as 2.17 % ID/g and the “Biodistribution: PC-3 Tumor” value (PC-3 xenograft; [3]) is given as 2.20 % ID/g. For the same compound, the “Biodistribution: Heart” value (PC-3 xenograft; Mouse #3, 4 h p.i., 1.49 nmol) was 0.02 % ID/g, the “Biodistribution: Kidney” value (PC-3 xenograft; Mouse #3, 4 h p.i., 1.49 nmol) was 2.20 % ID/g and the tissue uptake at 7.3 h [1, 4] was 1.36 %ID/g. The tissue uptake at 4 h [1, 4] was 2.75 %ID/g, the tissue uptake at 4 h ([1]; adrenal, read-out: Biodistribution: Adrenal) was 0.13 %ID/g and the tissue uptake at 25.1 h [1, 5] was 0.07 %ID/g. The tissue uptake at 4 h [1, 5] was 0.04 %ID/g, the tissue uptake at 25.1 h [1, 6] was 0.04 %ID/g and the tissue uptake at 7.3 h [1, 6] was 0.04 %ID/g. The tissue uptake at 7.3 h ([1]; heart, read-out: Biodistribution: Heart) was 0.02 %ID/g, the tissue uptake at 25.1 h [1, 7] was 0.08 %ID/g and the tissue uptake at 4 h [1, 7] was 0.08 %ID/g. For the same compound, the tissue uptake at 7.3 h ([1]; kidney, read-out: Biodistribution: Kidney) was 1.29 %ID/g, the tissue uptake at 25.1 h [1, 8] was 0.17 %ID/g and the tissue uptake at 7.3 h [1, 8] was 0.12 %ID/g. For the same compound, the tissue uptake at 4 h [1, 8] was 0.22 %ID/g, the tissue uptake ([1]; mouse, PC-3 xenograft tumor, 4-25.1 h p.i., range over mice, read-out: Uptake in PC-3 xenografts) was 1.36 to 2.75 %ID/g and the tissue uptake at 25.1 h [1, 9] was 0.01 %ID/g. It also gave a tissue uptake at 7.3 h [1, 9] of 0.01 %ID/g, a tissue uptake at 4 h [1, 9] of 0.01 %ID/g and a tissue uptake at 25.1 h ([1]; pancreas, read-out: Biodistribution: Pancreas) of 0.06 %ID/g. The tissue uptake at 25.1 h [1, 10] was 0.16 %ID/g, the tissue uptake at 7.3 h [1, 10] was 0.13 %ID/g and the tissue uptake at 4 h [1, 10] was 0.1 %ID/g. It also gave a tissue uptake at 7.3 h [1, 11] of 0.02 %ID/g, a tissue uptake at 4 h [1, 11] of 0.09 %ID/g and a tissue uptake at 24.2 h ([2]; CHO-K1-GRPR tumor, 0.37 nmol, Biodistribution: CHO-K1-GRPR Tumor, Mouse #5, 0.37 nmol) of 0.51 %ID/g. It also gave a tissue uptake at 24.2 h ([2]; CHO-K1-GRPR tumor, 0.58 nmol, Biodistribution: CHO-K1-GRPR Tumor, Mouse #4, 0.58 nmol) of 0.28 %ID/g, a tissue uptake at 25.8 h [2, 12] of 0.38 %ID/g and a tissue uptake at 25.2 h [2, 12] of 0.33 %ID/g. The tissue uptake at 24.2 h ([2]; CHO-K1-GRPR tumor, 1.41 nmol, Biodistribution: CHO-K1-GRPR Tumor, Mouse #7, 1.41 nmol) was 0.06 %ID/g, the tissue uptake at 17.6 h [2, 12] was 0.26 %ID/g and the tissue uptake ([2]; dual-tracer mice #8 and #9) was 0.26 to 0.38 %ID/g. The tissue uptake ([2]; single-tracer mice #4–#7) was 0.06 to 0.51 %ID/g, the tissue uptake at 24.2 h ([2]; CHO-K1-PSMA tumor, 0.37 nmol, Biodistribution: CHO-K1-PSMA Tumor, Mouse #5, 0.37 nmol) was 0.08 %ID/g and the tissue uptake at 25.8 h [2, 13] was 0.08 %ID/g. For the same compound, the tissue uptake at 25.2 h [2, 13] was 0.09 %ID/g, the tissue uptake at 24.2 h ([2]; CHO-K1-PSMA tumor, 1.41 nmol, Biodistribution: CHO-K1-PSMA Tumor, Mouse #7, 1.41 nmol) was 0.08 %ID/g and the tissue uptake at 17.6 h [2, 13] was 0.09 %ID/g. For the same compound, the tissue uptake at 24.2 h ([2]; adrenal, 0.37 nmol, Biodistribution: Adrenal, Mouse #5, 0.37 nmol) was 0.33 %ID/g, the tissue uptake at 24.2 h ([2]; adrenal, 0.58 nmol, Biodistribution: Adrenal, Mouse #4, 0.58 nmol) was 0.12 %ID/g and the tissue uptake at 25.2 h [2, 14] was 0.16 %ID/g. It also gave a tissue uptake at 24.2 h ([2]; adrenal, 1.41 nmol, Biodistribution: Adrenal, Mouse #7, 1.41 nmol) of 0.08 %ID/g, a tissue uptake at 17.6 h [2, 14] of 0.12 %ID/g and a tissue uptake at 25.8 h ([2]; blood, Biodistribution: Blood) of 0.02 %ID/g. The tissue uptake at 25.2 h ([2]; blood, Biodistribution: Blood) was 0.01 %ID/g, the tissue uptake at 24.2 h ([2]; blood, 1.41 nmol, Biodistribution: Blood, Mouse #7, 1.41 nmol) was 0.01 %ID/g and the tissue uptake at 17.6 h ([2]; blood, Biodistribution: Blood) was 0.02 %ID/g. It also gave a tissue uptake at 24.2 h ([2]; bone, 0.37 nmol, Biodistribution: Bone, Mouse #5, 0.37 nmol) of 0.04 %ID/g, a tissue uptake at 24.2 h ([2]; bone, 0.58 nmol, Biodistribution: Bone, Mouse #4, 0.58 nmol) of 0.04 %ID/g and a tissue uptake at 25.8 h ([2]; bone, Biodistribution: Bone) of 0.06 %ID/g. It also gave a tissue uptake at 25.2 h ([2]; bone, Biodistribution: Bone) of 0.06 %ID/g, a tissue uptake at 24.2 h ([2]; bone, 1.41 nmol, Biodistribution: Bone, Mouse #7, 1.41 nmol) of 0.04 %ID/g and a tissue uptake at 24.2 h ([2]; colon (empty), 0.37 nmol, Biodistribution: Colon (empty), Mouse #5, 0.37 nmol) of 0.08 %ID/g. For the same compound, the tissue uptake at 24.2 h ([2]; colon (empty), 0.58 nmol, Biodistribution: Colon (empty), Mouse #4, 0.58 nmol) was 0.04 %ID/g, the tissue uptake at 25.8 h ([2]; colon (empty), Biodistribution: Colon (empty)) was 0.04 %ID/g and the tissue uptake at 24.2 h ([2]; heart, 0.58 nmol, Biodistribution: Heart, Mouse #4, 0.58 nmol) was 0.02 %ID/g. It also gave a tissue uptake at 24.2 h ([2]; heart, 1.41 nmol, Biodistribution: Heart, Mouse #7, 1.41 nmol) of 0.02 %ID/g, a tissue uptake at 24.2 h ([2]; intestine (empty), 0.37 nmol, Biodistribution: Intestine (empty), Mouse #5, 0.37 nmol) of 0.06 %ID/g and a tissue uptake at 24.2 h ([2]; intestine (empty), 1.41 nmol, Biodistribution: Intestine (empty), Mouse #7, 1.41 nmol) of 0.04 %ID/g. For the same compound, the tissue uptake at 17.6 h ([2]; intestine (empty), Biodistribution: Intestine (empty)) was 0.04 %ID/g, the tissue uptake at 24.2 h ([2]; kidney, 0.37 nmol, Biodistribution: Kidney, Mouse #5, 0.37 nmol) was 1.42 %ID/g and the tissue uptake at 24.2 h ([2]; kidney, 0.58 nmol, Biodistribution: Kidney, Mouse #4, 0.58 nmol) was 1.14 %ID/g. For the same compound, the tissue uptake at 25.8 h [2, 15] was 1.07 %ID/g, the tissue uptake at 25.2 h [2, 15] was 1.69 %ID/g and the tissue uptake at 24.2 h ([2]; kidney, 1.41 nmol, Biodistribution: Kidney, Mouse #7, 1.41 nmol) was 1.34 %ID/g. It also gave a tissue uptake at 17.6 h [2, 15] of 1.09 %ID/g, a tissue uptake at 24.2 h ([2]; liver, 0.37 nmol, Biodistribution: Liver, Mouse #5, 0.37 nmol) of 0.13 %ID/g and a tissue uptake at 24.2 h ([2]; liver, 0.58 nmol, Biodistribution: Liver, Mouse #4, 0.58 nmol) of 0.1 %ID/g. It also gave a tissue uptake at 25.8 h ([2]; liver, Biodistribution: Liver) of 0.28 %ID/g, a tissue uptake at 25.2 h ([2]; liver, Biodistribution: Liver) of 0.2 %ID/g and a tissue uptake at 24.2 h ([2]; liver, 1.41 nmol, Biodistribution: Liver, Mouse #7, 1.41 nmol) of 0.17 %ID/g. The tissue uptake at 17.6 h ([2]; liver, Biodistribution: Liver) was 0.13 %ID/g, the tissue uptake at 25.8 h ([2]; lung, Biodistribution: Lung) was 0.04 %ID/g and the tissue uptake at 24.2 h ([2]; lung, 1.41 nmol, Biodistribution: Lung, Mouse #7, 1.41 nmol) was 0.04 %ID/g. The tissue uptake at 24.2 h ([2]; muscle, 0.37 nmol, Biodistribution: Muscle, Mouse #5, 0.37 nmol) was 0.01 %ID/g, the tissue uptake at 24.2 h ([2]; muscle, 0.58 nmol, Biodistribution: Muscle, Mouse #4, 0.58 nmol) was 0.01 %ID/g and the tissue uptake at 25.8 h [2, 16] was 0.01 %ID/g. It also gave a tissue uptake at 25.2 h [2, 16] of 0.02 %ID/g, a tissue uptake at 24.2 h ([2]; muscle, 1.41 nmol, Biodistribution: Muscle, Mouse #7, 1.41 nmol) of 0.01 %ID/g and a tissue uptake at 17.6 h [2, 16] of 0.01 %ID/g. For the same compound, the tissue uptake at 24.2 h ([2]; pancreas, 0.37 nmol, Biodistribution: Pancreas, Mouse #5, 0.37 nmol) was 0.1 %ID/g, the tissue uptake at 24.2 h ([2]; pancreas, 0.58 nmol, Biodistribution: Pancreas, Mouse #4, 0.58 nmol) was 0.07 %ID/g and the tissue uptake at 25.8 h [2, 17] was 0.07 %ID/g. The tissue uptake at 25.2 h [2, 17] was 0.06 %ID/g, the tissue uptake at 24.2 h ([2]; pancreas, 1.41 nmol, Biodistribution: Pancreas, Mouse #7, 1.41 nmol) was 0.04 %ID/g and the tissue uptake at 17.6 h [2, 17] was 0.04 %ID/g. It also gave a tissue uptake at 24.2 h ([2]; spleen, 0.37 nmol, Biodistribution: Spleen, Mouse #5, 0.37 nmol) of 0.08 %ID/g, a tissue uptake at 24.2 h ([2]; spleen, 0.58 nmol, Biodistribution: Spleen, Mouse #4, 0.58 nmol) of 0.07 %ID/g and a tissue uptake at 25.8 h [2, 18] of 0.25 %ID/g. The tissue uptake at 25.2 h [2, 18] was 0.13 %ID/g, the tissue uptake at 24.2 h ([2]; spleen, 1.41 nmol, Biodistribution: Spleen, Mouse #7, 1.41 nmol) was 0.08 %ID/g and the tissue uptake at 17.6 h [2, 18] was 0.1 %ID/g. The tissue uptake at 24.2 h ([2]; stomach (empty), 0.37 nmol, Biodistribution: Stomach (empty), Mouse #5, 0.37 nmol) was 0.04 %ID/g, the tissue uptake at 25.8 h [2, 19] was 0.04 %ID/g and the tissue uptake at 25.2 h [2, 19] was 0.04 %ID/g.
